Experimental data from publication PMC10412585 (Nature Communications, 2023).

What was measured:
CD94/NKG2C = experiment: Steady-state SPR of peptide-HLA-E single chain trimers with CD94/NKG2C; type: binding, human; settings: from Figure 5C KD values, stated in author rebuttal
Description: Specifically, we measured CD94/NKG2A and CD94/NKG2C affinity for HLA-E complexed with three sets of peptides. […] Third, we included […] peptide as a positive control.
Steady-state surface plasmon resonance experiments were performed with a Biacore T200 instrument. CD94/NKG2x in HBS-EP+ buffer was injected as analyte in a concentration range of 0.1 μM to 102.4 μM and flow rate of 10 μL/min at 25 °C. Data was fit with Prism 9.4 (GraphPad Software Inc; San Diego CA) to a “one site, specific binding” model. Sensorgrams are included in Supplemental Fig. 13.
For investigating WN peptides, biotinylated pMHC was immobilized at approximately 400 Response Units (RU) on a Series S SA sensor chip (Cytiva). […] CD94/NKG2A was injected followed by CD94/NKG2C.
For investigating human-derived peptides, Series S CM5 chips (Cytiva) were coupled to neutravidin and utilized. Biotinylated pMHC was immobilized at approximately 400 RU. On one chip, […] CD94/NKG2A was injected followed by CD94/NKG2C. On a second chip, PISD55-63 HLA-E SCT, AKAP6_388-396 HLA-E SCT, GTF3C5_293-301 HLA-E SCT, and reference HLA-DR401 were immobilized. CD94/NKG2C was injected followed by CD94/NKG2A. Rmax, fit values were calculated by Biacore software. Rmax, theoretical values were calculated using the analyte/ligand mass ratio (0.66) multiplied by the amount of ligand coupled to the chip.

NKG2A+/NKG2C- NK cells = experiment: NK cell activation assay with peptide-pulsed K562/HLA-E cells, NKG2A+/NKG2C- NK cells; type: cell-based, human; settings: K562/HLA-E target cells, 300 µM peptide ([…] µM BFAR263-271), E:T 2:1, 6 h; degranulation (CD107a), IFN-γ, TNF, CCL3; flow cytometry
NKG2A-/NKG2C+ NK cells = experiment: NK cell activation assay with peptide-pulsed K562/HLA-E cells, NKG2A-/NKG2C+ NK cells; type: cell-based, human; settings: K562/HLA-E target cells, 300 µM peptide ([…] µM BFAR263-271), E:T 2:1, 6 h; degranulation (CD107a), IFN-γ, TNF, CCL3; flow cytometry

Row | Sequence | weaker affinity of CD94/NKG2C compared to CD94/NKG2A (CD94/NKG2C) | weaker affinity of CD94/NKG2C compared to CD94/NKG2A (CD94/NKG2C; listed as VL9) | inhibitory effects on NKG2A+ cells (NKG2A+/NKG2C- NK cells) | activating effects on NKG2C+ cells (NKG2A-/NKG2C+ NK cells)
1 | VMAPRTLFL [positive control] | ~ 3 fold | ~ 2.7 fold |  | 
2 | VNPGRSLFL [BFAR263-271, human peptide from Bifunctional apoptosis regulator] |  |  | minimal inhibitory effects | clear activating effects
